Source: ChEMBL document CHEMBL1649335, “Discovery of {1-[4-(2-{hexahydropyrrolo[3,4-c]pyrrol-2(1H)-yl}-1H-benzimidazol-1-yl)piperidin-1-yl]cyclooctyl}methanol, systemically potent novel non-peptide agonist of nociceptin/orphanin FQ receptor as analgesic for the treatment of neuropathic pain: design, synthesis, and structure-activity …” (Bioorg Med Chem, 2010)
pEC50, pKi: −log10 of the molar value. The source made the active and inactive calls.

How the values were obtained:
[1] = system: Rattus norvegicus; test: Antiallodynic activity against von Frey hair mechanically stimulated neuropathic pain in sc dosed Sprague-Dawley rat assessed as increase of response threshold after 4 hrs; assay type: functional
[2] = system: Rattus norvegicus; test: Antiallodynic activity against von Frey hair mechanically stimulated neuropathic pain in sc dosed Sprague-Dawley rat assessed as assessed as minimum effective dose to increase of response threshold after 4 hrs; assay type: functional, organism-based
[3] = system: Rattus norvegicus; test: Antiallodynic activity against von Frey hair mechanically stimulated neuropathic pain in Sprague-Dawley rat assessed as effect on allodynia in contralateral paw at 5.5 to 170 nmol/site administered intrathecally after 20 mins; assay type: functional, organism-based
[4] = system: Rattus norvegicus; test: Antiallodynic activity against von Frey hair mechanically stimulated neuropathic pain in Sprague-Dawley rat assessed as effect on allodynia in contralateral paw at 1 to 30 mg/kg, sc after 1 hr; assay type: functional, organism-based
[5] = organism: Rattus norvegicus; test: Stimulation of rat guanylate cyclase at 1 uM relative to basal activity
[6] = system: Rattus norvegicus; test: Antiallodynic activity against von Frey hair mechanically stimulated neuropathic pain in sc dosed Sprague-Dawley rat assessed as assessed as minimum effective dose to increase of response threshold after 30 mins; assay type: functional
[7] = target: Type-2 angiotensin II receptor (Homo sapiens) (UniProt P50052); test: Inhibition of human angiotensin 2 AT2 receptor at 1 uM relative to control
[8] = system: Rattus norvegicus; test: Antiallodynic activity against von Frey hair mechanically stimulated neuropathic pain in sc dosed Sprague-Dawley rat assessed as assessed as minimum effective dose to increase of response threshold after 2 hrs; assay type: functional
[9] = target: Substance-P receptor (Homo sapiens) (UniProt P25103); test: Inhibition of human tachykinin NK1 receptor at 1 uM relative to control
[10] = target: Mu-type opioid receptor (Homo sapiens, UniProt P35372)
[11] = system: Rattus norvegicus; test: Antiallodynic activity against von Frey hair mechanically stimulated neuropathic pain in Sprague-Dawley rat assessed as effect on allodynia in contralateral paw at 1 to 30 mg/kg, sc after 30 mins; assay type: functional, organism-based
[12] = system: Rattus norvegicus; test: Antiallodynic activity against von Frey hair mechanically stimulated neuropathic pain in Sprague-Dawley rat assessed as effect on allodynia in contralateral paw at 5.5 to 170 nmol/site administered intrathecally after 1 hr; assay type: functional, organism-based
[13] = target: L-type calcium channel, dihydropyridine site (Rattus norvegicus, UniProt P22002+P27732+Q02485); test: Inhibition of rat L-type calcium channel dihydropyridine site at 1 uM relative to control
[14] = in vitro; conditions: human, liver microsomes
[15] = target: Cannabinoid receptor 1 (Homo sapiens) (UniProt P21554); test: Inhibition of human cannabinoid CB1 receptor at 1 uM relative to control
[16] = target: Voltage-gated inwardly rectifying potassium channel KCNH2 (Homo sapiens, UniProt Q12809); test: Displacement of [3H]dofetilide from human ERG expressed in HEK293 cells after 60 mins by liquid scintillation counting; assay type: cell-based
[17] = system: Rattus norvegicus; test: Toxicity in von Frey hair mechanically stimulated neuropathic pain Sprague-Dawley rat model assessed as sedation effect at up to 30 mg/kg, sc; assay type: organism-based; design: dose 30 mg/kg, route subcutaneous; conditions: in vivo
[18] = system: Rattus norvegicus; test: Antiallodynic activity against von Frey hair mechanically stimulated neuropathic pain in sc dosed Sprague-Dawley rat assessed as assessed as minimum effective dose to increase of response threshold after 1 hr; assay type: functional
[19] = target: Cysteinyl leukotriene receptor 1 (Homo sapiens) (UniProt Q9Y271); test: Inhibition of human leukotriene D4 receptor at 1 uM relative to control
[20] = Drug level Sprague-Dawley rat brain at 10 mg/kg, sc after […]; assay type: ADME, organism-based; design: dose 10 mg/kg, route subcutaneous; conditions: read-out: Drug uptake
[21] = target: Glucocorticoid receptor (Homo sapiens) (UniProt P04150); test: Inhibition of human glucocorticoid receptor at 1 uM relative to control
[22] = organism: Rattus norvegicus; test: Inhibition of rat K+ATP channel at 1 uM relative to control
[23] = target: Vasopressin V1a receptor (Homo sapiens) (UniProt P37288); test: Inhibition of human vasopressin V1A receptor at 1 uM relative to control
[24] = target: Histamine H2 receptor (Cavia porcellus) (UniProt P47747); test: Inhibition of guinea pig histamine H2 receptor at 1 uM relative to control
[25] = target: Adrenergic receptor alpha-2 (Rattus norvegicus) (UniProt P22086+P19328+P22909); test: Inhibition of rat alpha2 adrenoceptor at 1 uM relative to control
[26] = target: D(3) dopamine receptor (Homo sapiens) (UniProt P35462); test: Inhibition of human dopamine D3 receptor at 1 uM relative to control
[27] = organism: Rattus norvegicus; test: Inhibition of rat thyroid hormone receptor at 1 uM relative to control
[28] = system: Rattus norvegicus; test: Antiallodynic activity against von Frey hair mechanically stimulated neuropathic pain in sc dosed Sprague-Dawley rat assessed as increase of response threshold after 30 mins; assay type: functional; conditions: 0.5 h
[29] = Drug level Sprague-Dawley rat plasma at 10 mg/kg, sc after 0.5 hrs; assay type: ADME, organism-based; design: dose 10 mg/kg, route subcutaneous; conditions: read-out: Drug uptake
[30] = target: Muscarinic acetylcholine receptor (Rattus norvegicus) (UniProt P08482+P08483+P08485+P08911+P10980); test: Inhibition of rat muscarinic M receptor at 1 uM relative to control
[31] = system: Rattus norvegicus; test: Toxicity in von Frey hair mechanically stimulated neuropathic pain Sprague-Dawley rat model assessed as respiratory depression at up to 170 nmol/site, icv; assay type: organism-based; conditions: in vivo, icv_or_intrathecal
[32] = system: Rattus norvegicus; test: Antiallodynic activity against von Frey hair mechanically stimulated neuropathic pain in Sprague-Dawley rat assessed as assessed as minimum effective dose to increase of response threshold per site at 5.5 to 170 nmol/site, icv after 1 hr; assay type: functional, organism-based
[33] = organism: Rattus norvegicus; test: Inhibition of rat neuronal-type nicotinic acetylcholine receptor at 1 uM relative to control
[34] = organism: Rattus norvegicus; test: Inhibition of rat central benzodiazepine receptor at 1 uM relative to control
[35] = system: Rattus norvegicus; test: Antiallodynic activity against von Frey hair mechanically stimulated neuropathic pain in Sprague-Dawley rat assessed as increase of response threshold at 30 mg/kg, sc after 1 hr relative to control; assay type: functional; conditions: route subcutaneous
[36] = target: L-type calcium channel, diltiazem site (Rattus norvegicus, UniProt P22002+P27732+Q02485); test: Inhibition of rat L-type calcium channel diltiazem site at 1 uM relative to control
[37] = target: Histamine H1 receptor (Cavia porcellus) (UniProt P31389); test: Inhibition of guinea pig histamine H1 receptor at 1 uM relative to control
[38] = target: Histamine H3 receptor (Rattus norvegicus) (UniProt Q9QYN8); test: Inhibition of rat histamine H3 receptor at 1 uM relative to control
[39] = system: Rattus norvegicus; test: Antiallodynic activity against von Frey hair mechanically stimulated neuropathic pain in Sprague-Dawley rat assessed as increase of response threshold at 10 mg/kg, sc after 1 hr relative to control; assay type: functional; conditions: route subcutaneous
[40] = target: Adenosine receptor A1 (Homo sapiens) (UniProt P30542); test: Inhibition of human adenosine A1 receptor at 1 uM relative to control
[41] = system: Rattus norvegicus; test: Antiallodynic activity against von Frey hair mechanically stimulated neuropathic pain in Sprague-Dawley rat assessed as increase of response threshold per site at 55 nmol/site administered intrathecally after 20 mins relative to control; assay type: functional
[42] = organism: Rattus norvegicus; test: Inhibition of rat kainate receptor at 1 uM relative to control

Cannabinoid receptor 1 (Homo sapiens), sequence (P21554 whole entry): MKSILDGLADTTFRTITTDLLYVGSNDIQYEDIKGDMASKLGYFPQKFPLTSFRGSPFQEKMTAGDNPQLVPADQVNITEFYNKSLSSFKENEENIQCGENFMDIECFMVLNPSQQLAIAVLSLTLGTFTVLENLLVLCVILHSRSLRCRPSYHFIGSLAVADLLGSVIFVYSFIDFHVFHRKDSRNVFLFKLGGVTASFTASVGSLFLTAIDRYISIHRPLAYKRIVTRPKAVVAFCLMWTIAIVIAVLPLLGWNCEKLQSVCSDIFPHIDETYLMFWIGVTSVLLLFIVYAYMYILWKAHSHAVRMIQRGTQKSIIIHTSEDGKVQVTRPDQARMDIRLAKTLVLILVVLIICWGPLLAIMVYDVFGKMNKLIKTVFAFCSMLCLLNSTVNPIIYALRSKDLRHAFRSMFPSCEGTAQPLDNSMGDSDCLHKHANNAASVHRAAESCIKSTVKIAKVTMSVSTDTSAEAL
Histamine H1 receptor (Cavia porcellus), sequence (P31389 whole entry): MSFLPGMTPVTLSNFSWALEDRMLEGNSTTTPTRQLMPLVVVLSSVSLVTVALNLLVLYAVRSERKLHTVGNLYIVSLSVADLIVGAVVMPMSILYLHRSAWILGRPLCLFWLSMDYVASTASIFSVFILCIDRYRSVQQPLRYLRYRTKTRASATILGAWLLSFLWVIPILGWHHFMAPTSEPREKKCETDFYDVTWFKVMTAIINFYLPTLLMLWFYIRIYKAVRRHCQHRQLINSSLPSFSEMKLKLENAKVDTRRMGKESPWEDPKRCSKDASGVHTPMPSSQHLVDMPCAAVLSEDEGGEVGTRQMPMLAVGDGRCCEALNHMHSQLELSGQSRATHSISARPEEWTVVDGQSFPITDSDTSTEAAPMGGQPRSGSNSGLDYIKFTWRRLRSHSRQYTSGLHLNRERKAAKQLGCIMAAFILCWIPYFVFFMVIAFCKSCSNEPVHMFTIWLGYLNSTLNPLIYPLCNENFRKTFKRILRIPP
Cysteinyl leukotriene receptor 1 (Homo sapiens), sequence (Q9Y271 whole entry): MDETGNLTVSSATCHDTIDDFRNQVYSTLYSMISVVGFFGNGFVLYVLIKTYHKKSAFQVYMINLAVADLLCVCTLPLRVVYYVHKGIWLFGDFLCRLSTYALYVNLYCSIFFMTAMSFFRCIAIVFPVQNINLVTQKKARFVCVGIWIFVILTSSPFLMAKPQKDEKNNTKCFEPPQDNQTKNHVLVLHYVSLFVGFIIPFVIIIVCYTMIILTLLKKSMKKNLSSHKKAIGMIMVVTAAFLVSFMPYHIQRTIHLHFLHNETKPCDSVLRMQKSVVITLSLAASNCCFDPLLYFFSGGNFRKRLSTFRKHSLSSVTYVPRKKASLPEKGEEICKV
Type-2 angiotensin II receptor (Homo sapiens), sequence (P50052 whole entry): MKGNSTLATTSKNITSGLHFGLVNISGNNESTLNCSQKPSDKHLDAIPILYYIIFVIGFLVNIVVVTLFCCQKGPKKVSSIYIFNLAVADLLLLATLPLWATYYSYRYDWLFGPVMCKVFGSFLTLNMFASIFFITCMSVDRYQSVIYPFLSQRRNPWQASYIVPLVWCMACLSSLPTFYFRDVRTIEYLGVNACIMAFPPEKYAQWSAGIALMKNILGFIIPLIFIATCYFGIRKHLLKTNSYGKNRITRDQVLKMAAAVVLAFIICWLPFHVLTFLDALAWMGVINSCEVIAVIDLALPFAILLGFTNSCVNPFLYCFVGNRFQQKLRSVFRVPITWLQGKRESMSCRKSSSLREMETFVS
Substance-P receptor (Homo sapiens), sequence (P25103 whole entry): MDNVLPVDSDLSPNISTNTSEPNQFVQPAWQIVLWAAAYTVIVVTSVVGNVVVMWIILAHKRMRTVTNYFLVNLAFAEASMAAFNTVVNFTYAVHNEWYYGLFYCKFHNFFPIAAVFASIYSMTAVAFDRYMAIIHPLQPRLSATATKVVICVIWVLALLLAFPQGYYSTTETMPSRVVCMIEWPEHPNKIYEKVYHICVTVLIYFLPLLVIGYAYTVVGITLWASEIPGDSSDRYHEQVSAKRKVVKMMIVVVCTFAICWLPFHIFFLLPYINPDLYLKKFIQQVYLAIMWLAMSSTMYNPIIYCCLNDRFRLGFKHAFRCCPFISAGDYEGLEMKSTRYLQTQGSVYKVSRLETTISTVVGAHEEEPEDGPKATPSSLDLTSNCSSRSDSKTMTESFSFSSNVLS
Voltage-gated inwardly rectifying potassium channel KCNH2, sequence (Q12809 whole entry): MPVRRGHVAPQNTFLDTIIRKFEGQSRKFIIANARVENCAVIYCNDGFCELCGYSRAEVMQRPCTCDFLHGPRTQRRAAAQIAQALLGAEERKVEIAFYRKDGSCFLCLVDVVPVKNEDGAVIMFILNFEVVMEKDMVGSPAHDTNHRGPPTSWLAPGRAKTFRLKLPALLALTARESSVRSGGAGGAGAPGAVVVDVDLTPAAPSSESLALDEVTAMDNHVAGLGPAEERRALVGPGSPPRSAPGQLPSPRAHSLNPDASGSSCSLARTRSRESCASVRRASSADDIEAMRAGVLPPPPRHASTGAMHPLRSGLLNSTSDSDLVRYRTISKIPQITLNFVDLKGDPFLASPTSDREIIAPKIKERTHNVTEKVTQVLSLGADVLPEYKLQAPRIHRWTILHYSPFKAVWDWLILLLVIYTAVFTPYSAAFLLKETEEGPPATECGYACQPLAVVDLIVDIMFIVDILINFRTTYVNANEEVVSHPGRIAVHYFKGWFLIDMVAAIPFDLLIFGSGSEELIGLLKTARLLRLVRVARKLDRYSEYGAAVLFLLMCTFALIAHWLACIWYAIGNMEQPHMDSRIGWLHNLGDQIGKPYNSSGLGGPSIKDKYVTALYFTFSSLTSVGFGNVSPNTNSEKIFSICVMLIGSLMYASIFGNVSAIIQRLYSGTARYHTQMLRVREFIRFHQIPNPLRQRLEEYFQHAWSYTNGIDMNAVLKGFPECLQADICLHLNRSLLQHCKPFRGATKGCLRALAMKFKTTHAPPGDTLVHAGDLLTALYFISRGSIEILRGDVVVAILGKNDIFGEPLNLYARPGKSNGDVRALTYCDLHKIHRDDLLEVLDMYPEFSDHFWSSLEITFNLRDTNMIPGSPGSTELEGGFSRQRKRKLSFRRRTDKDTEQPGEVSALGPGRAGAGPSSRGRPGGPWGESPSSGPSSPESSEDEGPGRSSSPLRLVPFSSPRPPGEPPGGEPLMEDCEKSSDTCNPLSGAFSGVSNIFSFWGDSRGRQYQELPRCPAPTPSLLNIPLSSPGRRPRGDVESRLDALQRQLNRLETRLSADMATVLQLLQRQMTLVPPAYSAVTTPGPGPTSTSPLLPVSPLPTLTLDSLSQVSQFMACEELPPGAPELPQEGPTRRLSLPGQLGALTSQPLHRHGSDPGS
Histamine H3 receptor (Rattus norvegicus), sequence (Q9QYN8 whole entry): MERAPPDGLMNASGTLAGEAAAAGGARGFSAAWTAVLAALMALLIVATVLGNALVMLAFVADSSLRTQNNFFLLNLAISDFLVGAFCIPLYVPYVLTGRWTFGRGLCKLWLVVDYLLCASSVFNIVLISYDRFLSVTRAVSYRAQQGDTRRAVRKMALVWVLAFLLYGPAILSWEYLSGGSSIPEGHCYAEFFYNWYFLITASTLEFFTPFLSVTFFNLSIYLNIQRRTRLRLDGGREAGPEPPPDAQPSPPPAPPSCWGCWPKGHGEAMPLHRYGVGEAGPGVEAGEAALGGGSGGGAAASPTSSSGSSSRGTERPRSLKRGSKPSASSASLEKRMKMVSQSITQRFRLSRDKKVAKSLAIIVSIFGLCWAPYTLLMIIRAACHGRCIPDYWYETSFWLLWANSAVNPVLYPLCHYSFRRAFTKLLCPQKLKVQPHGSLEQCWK
Glucocorticoid receptor (Homo sapiens), sequence (P04150 whole entry): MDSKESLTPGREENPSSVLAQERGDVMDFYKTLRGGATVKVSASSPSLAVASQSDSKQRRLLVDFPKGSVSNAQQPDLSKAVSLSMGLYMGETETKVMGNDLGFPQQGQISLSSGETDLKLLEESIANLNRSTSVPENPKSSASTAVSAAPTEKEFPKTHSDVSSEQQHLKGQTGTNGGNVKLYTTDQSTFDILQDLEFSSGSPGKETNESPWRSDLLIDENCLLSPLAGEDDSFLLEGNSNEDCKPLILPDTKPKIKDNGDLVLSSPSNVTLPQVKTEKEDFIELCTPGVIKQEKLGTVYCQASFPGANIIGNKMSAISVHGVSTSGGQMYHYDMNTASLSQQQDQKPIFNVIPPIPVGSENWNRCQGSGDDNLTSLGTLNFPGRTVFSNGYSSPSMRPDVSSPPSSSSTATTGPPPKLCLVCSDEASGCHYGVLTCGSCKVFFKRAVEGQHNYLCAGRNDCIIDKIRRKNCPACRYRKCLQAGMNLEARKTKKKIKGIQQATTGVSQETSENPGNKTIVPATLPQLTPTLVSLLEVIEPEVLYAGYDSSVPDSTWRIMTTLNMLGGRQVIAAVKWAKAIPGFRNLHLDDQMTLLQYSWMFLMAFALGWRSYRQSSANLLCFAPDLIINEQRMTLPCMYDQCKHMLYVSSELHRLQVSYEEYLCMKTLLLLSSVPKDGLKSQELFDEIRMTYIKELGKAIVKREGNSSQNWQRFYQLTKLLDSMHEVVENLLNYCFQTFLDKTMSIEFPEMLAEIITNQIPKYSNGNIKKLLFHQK
Adenosine receptor A1 (Homo sapiens), sequence (P30542 whole entry): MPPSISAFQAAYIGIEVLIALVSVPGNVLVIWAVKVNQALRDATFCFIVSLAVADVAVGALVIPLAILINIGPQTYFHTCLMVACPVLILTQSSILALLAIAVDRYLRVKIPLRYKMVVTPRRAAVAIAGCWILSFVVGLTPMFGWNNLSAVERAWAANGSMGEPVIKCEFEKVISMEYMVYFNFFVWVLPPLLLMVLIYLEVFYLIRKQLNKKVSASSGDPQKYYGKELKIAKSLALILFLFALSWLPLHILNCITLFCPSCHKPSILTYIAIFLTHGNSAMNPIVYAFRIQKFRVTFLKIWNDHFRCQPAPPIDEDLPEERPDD

For OCC1(N2CCC(n3c(N4CC5CNCC5C4)nc4ccccc43)CC2)CCCCCCC1 (configuration not stated), the ED50 [1] was over 30 mg/kg, the MED [2] was “inactive” and the Activity [3] was “inactive”. The Activity [4] was “inactive”, the inhibition [5] was under 10% and the MED [6] was 30 mg/kg. It also gave an inhibition [7] of under 10%, an MED [8] of 30 mg/kg and an inhibition [9] of under 10%. For the same molecule, the pEC50 [10] was 5.46, the Activity [11] was “inactive” and the Activity [12] was “inactive”. It also gave an inhibition at 1 µM [13] of under 10%, a half-life at 1 µM [14] of 45.6 min and an inhibition [15] of 18%. For the same molecule, the pKi [16] was 5.43, the Activity [17] was “Non-toxic” and the MED [18] was 10 mg/kg. It also gave an inhibition [19] of under 10%, a concentration at […] [20] of 226 ng/mL and an inhibition [21] of under 10%. It also gave an inhibition [22] of under 10%, an inhibition [23] of under 10% and an inhibition [24] of 22%. The inhibition [25] was under 10%, the inhibition [26] was under 10% and the inhibition [27] was under 10%. The ED50 [28] was 26.8 mg/kg, the concentration at 0.5 h [29] was 600 ng/mL and the inhibition [30] was 38%. The Activity [31] was “Non-toxic”, the MED [32] was “inactive” and the inhibition [33] was under 10%. For the same molecule, the inhibition [34] was under 10%, the Activity [35] was 79.3% and the inhibition at 1 µM [36] was 18%. For the same molecule, the inhibition [37] was under 10%, the inhibition [38] was under 10% and the Activity [39] was 37.6%. For the same molecule, the inhibition [40] was under 10%, the Activity [41] was 49.4% and the inhibition [42] was 32%.
